Tested on: HisA enzyme from Nicotiana Plumbaginifolia
Experiment: HisA enzyme activity assay (INT/PMS dye, absorbance at 530 nm)
Format: biochemical
Conditions: partially purified recombinant enzyme expressed in E. coli BL21 (DE3); 0.2 M Triethanolamine pH 8.5, 30° C.; read-out: Km for substrate
Method: The HisA enzyme from Nicotiana Plumbaginifolia was partially purified and assayed as follows. A plasmid clone with the cDNA insert in the correct orientation relative to the T7 promoter was transformed into E. coli strain BL21 (DE3) (Studier et al. (1986) J. Mol. Biol. 189:113-130). Cultures are grown in LB medium carbenicillin ([…]) at 28° C. to an optical denisity of 0.44 at 600 nm. Each liter of LB/carbenicillin was inoculated with 20 mL of the overnight culture. These one liter cultures were incubated at 26° C. with agitation for 21 hours. HisA expression was induced as described above. The cells were harvested by centrifugation and frozen at −80° C.
Each gram of cell paste was resuspended in two milliliters of 20 mM Triethanolamine buffer at pH 8.3 containing Complete™ protease inhibitors (Boehringer Mannheim) and 1 mM EDTA. The cells were disrupted by three passes through a microfluidizer and the lysed cell debris was removed by centrifugation. The supernatant was treated with streptomycin sulfate which was added to a final concentration of 1%. […]
HisA enzyme activity was assayed essentially as described by Margolies et al., (1966) J. Biol. Chem. 241:3262-3269. […] Blank reactions containing either no enzyme or no substrate were also prepared to control for background absorbance. […] The absorbance at 530 nm was measured.

With `NC(=O)c1ncn([C@@H]2O[C@H](COP(=O)(O)O)[C@@H](O)[C@H]2O)c1N=CN[C@@H]1O[C@H](COP(=O)(O)O)[C@@H](O)[C@H]1O` [5′ Profar, N1-[(5′-phospho-b-D-ribosyl)formimino]-5-aminoimidazole-4-carboxamide ribonucleotide] the Km was 200 µM.

Reference: US20030082787A1, “Plant histidine biosynthetic enzymes” (priority 2001, published 2003)
